# Tests used:
# IRAK4 = IRAK4 (Homo sapiens, UniProt Q9NWZ3); experiment: Kinase selectivity profiling, Interleukin 1 receptor-associated kinase 4; type: biochemical; settings: read-out: Percentage inhibition of IRAK4
# Experimental: (§1) The selectivity of compounds against a panel of 50 human protein kinases was assessed using a non-radiometric assay.
# AKT1 = AKT1 (Homo sapiens, UniProt P31749); experiment: Kinase selectivity profiling, v-Akt murine thymoma viral oncogene homolog 1; type: biochemical; settings: read-out: Percentage inhibition of AKT1
# Experimental: as §1
# EPHA2 = EPHA2 (Homo sapiens, UniProt P29317); experiment: Kinase selectivity profiling, EPH receptor A2; type: biochemical; settings: read-out: Percentage inhibition of EPHA2
# Experimental: as §1
# SGK = SGK (Homo sapiens, UniProt O00141); experiment: Kinase selectivity profiling, Serum/glucocorticoid regulated kinase; type: biochemical; settings: read-out: Percentage inhibition of SGK
# Experimental: as §1
# IKKβ = IKKβ (Homo sapiens, UniProt O14920); experiment: Kinase selectivity profiling, I-kappa-B kinase-β; type: biochemical; settings: read-out: Percentage inhibition of IKKβ
# Experimental: as §1
# HCT116 cells [1] = experiment: Limiting dilution analysis of sphere formation, HCT116; type: cell-based, human
# Experimental: One million HCT116 and DLD-1 cells were seeded onto 60-mm plates and treated with vehicle (DMSO) or compounds (0.1, 0.3 or 1.0 μM) for either 3 or 4 days. After washing off the compounds, the cells were dissociated to single cells in serum-free DMEM/F12 medium (Thermo Fisher Scientific) containing B27 (Thermo Fisher Scientific), 20 ng ml^−1 epidermal growth factor (EGF; Thermo Fisher Scientific), 10 ng ml^−1 basic fibroblast factor (bFGF; Thermo Fisher Scientific), 5 μg ml^−1 insulin (Thermo Fisher Scientific), 0.4% bovine serum albumin (Sigma-Aldrich) and 2 mM L-glutamine (Thermo Fisher Scientific). One hundred, 10 or 1 viable (determined by trypan-blue dye exclusion) cells were seeded into each well of a 96-well U-bottom PrimeSurface plate (Sumitomo Bakelite). Ten days later, the number of wells showing sphere formation was counted. The frequency of sphere-forming cells was calculated using ELDA software (http://bioinf.wehi.edu.au/software/elda/index.html) provided by the Walter and Eliza Hall Institute (Fig. 5c; Supplementary Table 2). Experiments were performed in triplicate and repeated at least two times.
# PKACα = PKACα (Homo sapiens, UniProt P17612); experiment: Kinase selectivity profiling, cAMP-dependent protein kinase, catalytic subunit α; type: biochemical; settings: read-out: Percentage inhibition of PKACα
# Experimental: as §1
# CSK = CSK (Homo sapiens, UniProt P41240); experiment: Kinase selectivity profiling, c-Src tyrosine kinase; type: biochemical; settings: read-out: Percentage inhibition of CSK
# Experimental: as §1
# SRC = SRC (Homo sapiens, UniProt P12931); experiment: Kinase selectivity profiling, v-Src sarcoma viral oncogene homolog; type: biochemical; settings: read-out: Percentage inhibition of SRC
# Experimental: as §1
# MST1 = MST1 (Homo sapiens, UniProt Q13043); experiment: Kinase selectivity profiling; type: biochemical; settings: read-out: Percentage inhibition of MST1
# Experimental: as §1
# PKD2 = PKD2 (Homo sapiens, UniProt Q9BZL6); experiment: Kinase selectivity profiling; type: biochemical; settings: read-out: Percentage inhibition of PKD2
# Experimental: as §1
# PDK1 = PDK1 (Homo sapiens, UniProt O15530); experiment: Kinase selectivity profiling; type: biochemical; settings: read-out: Percentage inhibition of PDK1
# Experimental: as §1
# NEK2 = NEK2 (Homo sapiens, UniProt P51955); experiment: Kinase selectivity profiling, Never in mitosis gene A-related kinase 2; type: biochemical; settings: read-out: Percentage inhibition of NEK2
# Experimental: as §1
# PAK2 = PAK2 (Homo sapiens, UniProt Q13177); experiment: Kinase selectivity profiling, P21 protein (Cdc42/Rac)-activated kinase 2; type: biochemical; settings: read-out: Percentage inhibition of PAK2
# Experimental: as §1
# HCT116 cells [2] = experiment: Cell cycle analysis by flow cytometry; type: cell-based, human; settings: HCT116, 3 μM
# Experimental: Cells were dissociated with Accutase, fixed with 70% EtOH at −20 °C, stained with Guava Cell Cycle reagent (Merck-Millipore) in accordance with the manufacturer's instructions, and analysed using a Guava easy Cyte HT flow cytometer (Merck-Millipore). Cell doublets were eliminated by doublet discrimination gating. Data were analyzed using FLOWJO version 10 software (Treestar; Fig. 3e). Experiments were performed in triplicate and repeated at least two times.
# MAPKAPK2 = MAPKAPK2 (Homo sapiens, UniProt P49137); experiment: Kinase selectivity profiling, Mitogen-activated protein kinase-activated protein kinase 2; type: biochemical; settings: read-out: Percentage inhibition of MAPKAPK2
# Experimental: as §1
# [3] = tested on: patient-derived colorectal cancer spheroids #6; experiment: ATP production of patient-derived spheroid #6; type: cell-based; settings: Homo sapiens, 72 h; spheroid #6, 3 days
# Experimental: Cells were seeded at a density of 3,000 cells per well in 96-well plates. Twenty-four hours after seeding, the cells were exposed to serially diluted compounds (0.003, 0.01, 0.03, 0.1, 0.3, 1, 3 and 10 μM) and incubated for 72 h (Fig. 3a). Patient-derived colorectal cancer spheroids were dissociated into single cells with Accutase (Nacalai Tesque) and seeded at a density of 3,000 cells per well into Ultra-Low attachment multiwall 96-well plates (Corning; Fig. 6d). ATP was measured with a CellTiter-Glo Luminescent Cell Viability Assay kit (Promega). Experiments were performed in triplicate and repeated at least two times.
# EPHA4 = EPHA4 (Homo sapiens, UniProt P54764); experiment: Kinase selectivity profiling, EPH receptor A4; type: biochemical; settings: read-out: Percentage inhibition of EPHA4
# Experimental: as §1
# LCK = LCK (Homo sapiens, UniProt P06239); experiment: Kinase selectivity profiling, Lymphocyte-specific protein tyrosine kinase; type: biochemical; settings: read-out: Percentage inhibition of LCK
# Experimental: as §1
# [4] = HCT116, 3-day treatment, 0.1μM, 1 cell per well
# [5] = HCT116, 3-day treatment, 0.1μM, 10 cells per well
# [6] = HCT116, 3-day treatment, 0.1μM, 100 cells per well
# [7] = HCT116, 3-day treatment, 0.3μM, 1 cell per well
# [8] = HCT116, 3-day treatment, 0.3μM, 10 cells per well
# [9] = HCT116, 3-day treatment, 0.3μM, 100 cells per well
# [10] = HCT116, 3-day treatment, 1.0μM, 1 cell per well
# [11] = HCT116, 3-day treatment, 1.0μM, 10 cells per well
# [12] = HCT116, 3-day treatment, 1.0μM, 100 cells per well
# [13] = HCT116, 4-day treatment, 0.1μM, 1 cell per well
# [14] = HCT116, 4-day treatment, 0.1μM, 10 cells per well
# [15] = HCT116, 4-day treatment, 0.1μM, 100 cells per well
# [16] = HCT116, 4-day treatment, 0.3μM, 1 cell per well
# [17] = HCT116, 4-day treatment, 0.3μM, 10 cells per well
# [18] = HCT116, 4-day treatment, 0.3μM, 100 cells per well
# [19] = HCT116, 4-day treatment, 1.0μM, 1 cell per well
# [20] = HCT116, 4-day treatment, 1.0μM, 10 cells per well
# [21] = HCT116, 4-day treatment, 1.0μM, 100 cells per well
# Sequence of PAK2 (Q13177 whole entry): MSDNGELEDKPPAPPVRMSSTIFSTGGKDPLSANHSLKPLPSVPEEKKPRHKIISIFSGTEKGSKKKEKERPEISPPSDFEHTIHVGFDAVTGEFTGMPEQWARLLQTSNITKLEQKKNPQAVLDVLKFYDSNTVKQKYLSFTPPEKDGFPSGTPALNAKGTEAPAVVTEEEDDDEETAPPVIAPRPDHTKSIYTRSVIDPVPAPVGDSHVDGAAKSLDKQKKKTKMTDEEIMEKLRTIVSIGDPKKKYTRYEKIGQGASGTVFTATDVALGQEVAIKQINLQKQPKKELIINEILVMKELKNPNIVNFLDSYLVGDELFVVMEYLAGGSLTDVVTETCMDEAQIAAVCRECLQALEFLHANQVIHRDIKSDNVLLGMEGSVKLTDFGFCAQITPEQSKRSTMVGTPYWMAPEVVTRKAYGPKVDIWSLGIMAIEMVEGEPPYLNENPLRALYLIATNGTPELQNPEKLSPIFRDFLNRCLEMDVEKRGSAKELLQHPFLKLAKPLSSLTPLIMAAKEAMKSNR
# Sequence of SGK (O00141 whole entry): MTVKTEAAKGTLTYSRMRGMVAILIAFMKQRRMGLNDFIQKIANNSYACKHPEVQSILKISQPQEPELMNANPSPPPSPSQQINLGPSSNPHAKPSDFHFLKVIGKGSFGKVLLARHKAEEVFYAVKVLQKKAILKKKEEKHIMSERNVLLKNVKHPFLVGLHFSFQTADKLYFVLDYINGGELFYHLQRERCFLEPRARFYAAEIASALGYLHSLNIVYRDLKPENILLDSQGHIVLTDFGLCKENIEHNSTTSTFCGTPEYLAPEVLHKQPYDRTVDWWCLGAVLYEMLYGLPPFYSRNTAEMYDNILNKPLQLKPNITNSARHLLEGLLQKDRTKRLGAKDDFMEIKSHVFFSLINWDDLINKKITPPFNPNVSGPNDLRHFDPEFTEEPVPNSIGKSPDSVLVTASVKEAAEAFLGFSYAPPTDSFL
# Sequence of PDK1 (O15530 whole entry): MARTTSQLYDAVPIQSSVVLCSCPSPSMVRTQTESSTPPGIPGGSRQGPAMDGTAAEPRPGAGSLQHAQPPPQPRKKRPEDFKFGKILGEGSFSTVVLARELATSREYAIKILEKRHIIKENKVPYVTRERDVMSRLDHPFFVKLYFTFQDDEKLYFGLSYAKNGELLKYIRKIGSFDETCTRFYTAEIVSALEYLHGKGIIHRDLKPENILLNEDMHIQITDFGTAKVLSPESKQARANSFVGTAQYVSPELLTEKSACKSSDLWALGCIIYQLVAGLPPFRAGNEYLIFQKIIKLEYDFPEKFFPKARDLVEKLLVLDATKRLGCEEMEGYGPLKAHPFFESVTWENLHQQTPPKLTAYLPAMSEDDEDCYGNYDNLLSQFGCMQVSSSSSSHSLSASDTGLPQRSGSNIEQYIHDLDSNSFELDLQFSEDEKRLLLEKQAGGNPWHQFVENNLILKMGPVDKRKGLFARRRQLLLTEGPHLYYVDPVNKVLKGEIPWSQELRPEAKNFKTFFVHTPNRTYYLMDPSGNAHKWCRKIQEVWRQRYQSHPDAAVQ
# Sequence of PKD2 (Q9BZL6 whole entry): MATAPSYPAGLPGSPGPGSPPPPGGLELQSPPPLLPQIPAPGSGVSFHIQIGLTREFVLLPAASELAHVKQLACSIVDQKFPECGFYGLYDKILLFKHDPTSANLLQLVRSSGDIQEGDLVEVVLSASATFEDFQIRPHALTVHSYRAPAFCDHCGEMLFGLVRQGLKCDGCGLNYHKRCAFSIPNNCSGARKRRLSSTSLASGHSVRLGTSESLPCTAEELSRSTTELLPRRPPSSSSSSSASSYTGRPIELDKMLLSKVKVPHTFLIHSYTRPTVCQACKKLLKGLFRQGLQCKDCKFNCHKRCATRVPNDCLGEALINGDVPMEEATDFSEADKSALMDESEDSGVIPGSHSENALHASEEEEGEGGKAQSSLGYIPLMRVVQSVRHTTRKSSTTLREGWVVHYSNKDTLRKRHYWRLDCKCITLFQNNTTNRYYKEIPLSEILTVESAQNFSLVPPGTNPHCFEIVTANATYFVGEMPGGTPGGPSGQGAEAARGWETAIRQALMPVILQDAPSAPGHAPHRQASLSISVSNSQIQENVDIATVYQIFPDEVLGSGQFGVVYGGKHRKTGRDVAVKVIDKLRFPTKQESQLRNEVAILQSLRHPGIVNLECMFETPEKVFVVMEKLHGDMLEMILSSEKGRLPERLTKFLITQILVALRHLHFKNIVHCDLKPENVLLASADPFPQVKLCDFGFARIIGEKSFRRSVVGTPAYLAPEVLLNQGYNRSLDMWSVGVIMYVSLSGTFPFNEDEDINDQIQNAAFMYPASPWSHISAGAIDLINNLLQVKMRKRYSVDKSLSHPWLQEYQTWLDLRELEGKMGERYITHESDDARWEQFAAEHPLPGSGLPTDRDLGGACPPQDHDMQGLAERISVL
# Sequence of IRAK4 (Q9NWZ3 whole entry): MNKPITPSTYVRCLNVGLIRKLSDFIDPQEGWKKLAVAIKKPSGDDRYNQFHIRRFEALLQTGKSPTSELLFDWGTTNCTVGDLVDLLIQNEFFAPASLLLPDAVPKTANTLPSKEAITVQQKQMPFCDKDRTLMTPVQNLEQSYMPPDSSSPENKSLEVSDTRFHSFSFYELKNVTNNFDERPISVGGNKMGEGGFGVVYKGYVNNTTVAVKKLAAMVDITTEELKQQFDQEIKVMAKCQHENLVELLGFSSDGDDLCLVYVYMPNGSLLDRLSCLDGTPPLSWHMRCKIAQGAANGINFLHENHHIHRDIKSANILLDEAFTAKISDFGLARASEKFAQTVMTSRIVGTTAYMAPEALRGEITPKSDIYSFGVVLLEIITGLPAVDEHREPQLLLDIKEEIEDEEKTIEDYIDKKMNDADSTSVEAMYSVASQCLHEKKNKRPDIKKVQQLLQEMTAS
# Sequence of MAPKAPK2 (P49137 whole entry): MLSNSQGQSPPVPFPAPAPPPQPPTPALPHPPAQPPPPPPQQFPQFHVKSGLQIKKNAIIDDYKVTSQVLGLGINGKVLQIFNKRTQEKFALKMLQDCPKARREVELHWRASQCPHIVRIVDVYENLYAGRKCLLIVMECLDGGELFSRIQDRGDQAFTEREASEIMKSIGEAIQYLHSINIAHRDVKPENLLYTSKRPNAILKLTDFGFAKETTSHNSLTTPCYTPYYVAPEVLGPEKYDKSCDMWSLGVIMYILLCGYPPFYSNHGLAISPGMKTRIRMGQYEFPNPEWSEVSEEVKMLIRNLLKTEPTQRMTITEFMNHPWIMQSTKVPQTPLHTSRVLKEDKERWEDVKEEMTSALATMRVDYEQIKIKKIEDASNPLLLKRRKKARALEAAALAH
# Sequence of NEK2 (P51955 whole entry): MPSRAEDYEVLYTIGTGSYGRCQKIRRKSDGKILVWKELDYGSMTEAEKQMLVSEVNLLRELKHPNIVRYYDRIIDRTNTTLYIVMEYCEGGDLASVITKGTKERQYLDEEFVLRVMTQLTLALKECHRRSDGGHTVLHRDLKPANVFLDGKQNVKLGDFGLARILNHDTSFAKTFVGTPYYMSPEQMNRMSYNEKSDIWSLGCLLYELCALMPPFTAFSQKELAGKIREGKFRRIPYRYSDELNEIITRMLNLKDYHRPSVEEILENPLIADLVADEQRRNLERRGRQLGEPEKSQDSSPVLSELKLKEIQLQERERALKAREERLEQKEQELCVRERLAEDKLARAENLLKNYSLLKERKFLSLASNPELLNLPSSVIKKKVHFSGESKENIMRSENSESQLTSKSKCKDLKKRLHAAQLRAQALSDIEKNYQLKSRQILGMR
# Sequence of CSK (P41240 whole entry): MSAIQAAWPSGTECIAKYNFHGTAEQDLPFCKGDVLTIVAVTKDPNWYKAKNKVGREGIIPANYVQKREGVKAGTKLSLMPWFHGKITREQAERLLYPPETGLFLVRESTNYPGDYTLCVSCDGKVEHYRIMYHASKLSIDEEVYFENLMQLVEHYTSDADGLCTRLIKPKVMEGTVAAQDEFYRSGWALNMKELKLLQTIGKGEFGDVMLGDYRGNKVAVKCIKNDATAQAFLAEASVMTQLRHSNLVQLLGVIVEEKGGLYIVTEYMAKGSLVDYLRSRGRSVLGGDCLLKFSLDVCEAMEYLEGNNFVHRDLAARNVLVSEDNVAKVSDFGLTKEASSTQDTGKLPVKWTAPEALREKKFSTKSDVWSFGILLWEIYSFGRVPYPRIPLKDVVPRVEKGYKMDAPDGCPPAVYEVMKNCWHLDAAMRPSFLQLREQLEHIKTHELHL
# Sequence of MST1 (Q13043 whole entry): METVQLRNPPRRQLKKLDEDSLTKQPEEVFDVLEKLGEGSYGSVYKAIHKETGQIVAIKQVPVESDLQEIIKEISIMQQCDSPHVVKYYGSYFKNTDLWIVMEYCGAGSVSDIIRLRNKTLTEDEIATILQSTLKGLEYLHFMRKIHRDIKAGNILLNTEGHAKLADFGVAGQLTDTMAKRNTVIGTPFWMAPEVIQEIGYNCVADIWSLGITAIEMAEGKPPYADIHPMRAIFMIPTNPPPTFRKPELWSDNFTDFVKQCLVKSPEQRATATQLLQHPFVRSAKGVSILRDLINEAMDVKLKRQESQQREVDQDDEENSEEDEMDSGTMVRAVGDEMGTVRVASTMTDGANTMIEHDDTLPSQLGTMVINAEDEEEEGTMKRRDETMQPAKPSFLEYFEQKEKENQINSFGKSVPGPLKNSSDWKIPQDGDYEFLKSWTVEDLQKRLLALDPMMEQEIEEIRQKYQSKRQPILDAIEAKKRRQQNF
structure (smiles),measurement,setting,value
O[C@H]1CC[C@H](Oc2cccc3cnc(Nc4ccc5nc[nH]c5c4)nc23)CC1 [NCB-0970],inhibition at 0.1 µM,IRAK4,6.3%
same,inhibition at 0.1 µM,AKT1,-4.4%
same,inhibition at 0.1 µM,EPHA2,8.7%
same,inhibition at 0.1 µM,SGK,6.6%
same,inhibition at 0.1 µM,IKKβ,7.9%
same,Sphere-containing wells/total wells,HCT116 cells [1]; [4],62/96
same,Sphere-containing wells/total wells,HCT116 cells [1]; [5],96/96
same,Sphere-containing wells/total wells,HCT116 cells [1]; [6],96/96
same,Sphere-containing wells/total wells,HCT116 cells [1]; [7],65/96
same,Sphere-containing wells/total wells,HCT116 cells [1]; [8],96/96
same,Sphere-containing wells/total wells,HCT116 cells [1]; [9],96/96
same,Sphere-containing wells/total wells,HCT116 cells [1]; [10],60/96
same,Sphere-containing wells/total wells,HCT116 cells [1]; [11],96/96
same,Sphere-containing wells/total wells,HCT116 cells [1]; [12],96/96
same,Sphere-containing wells/total wells,HCT116 cells [1]; [13],59/96
same,Sphere-containing wells/total wells,HCT116 cells [1]; [14],96/96
same,Sphere-containing wells/total wells,HCT116 cells [1]; [15],96/96
same,Sphere-containing wells/total wells,HCT116 cells [1]; [16],60/96
same,Sphere-containing wells/total wells,HCT116 cells [1]; [17],96/96
same,Sphere-containing wells/total wells,HCT116 cells [1]; [18],96/96
same,Sphere-containing wells/total wells,HCT116 cells [1]; [19],56/96
same,Sphere-containing wells/total wells,HCT116 cells [1]; [20],96/96
same,Sphere-containing wells/total wells,HCT116 cells [1]; [21],96/96
same,inhibition at 0.1 µM,PKACα,-4.4%
same,inhibition at 0.1 µM,CSK,-4%
same,inhibition at 0.1 µM,SRC,14.4%
same,inhibition at 0.1 µM,MST1,14.3%
same,inhibition at 0.1 µM,PKD2,1%
same,inhibition at 0.1 µM,PDK1,-0.8%
same,inhibition at 0.1 µM,NEK2,-4.5%
same,inhibition at 0.1 µM,PAK2,-17.4%
same,>4N (%),HCT116 cells [2]; 24 h,9.1%
same,G0/G1 (%),HCT116 cells [2]; 24 h,24.5%
same,G2/M (%),HCT116 cells [2]; 24 h,35.8%
same,S (%),HCT116 cells [2]; 24 h,10.7%
same,SubG1 (%),HCT116 cells [2]; 24 h,20%
same,>4N (%),HCT116 cells [2]; 48 h,8.5%
same,G0/G1 (%),HCT116 cells [2]; 48 h,21%
same,G2/M (%),HCT116 cells [2]; 48 h,40.3%
same,S (%),HCT116 cells [2]; 48 h,10.7%
same,SubG1 (%),HCT116 cells [2]; 48 h,19.5%
same,inhibition at 0.1 µM,MAPKAPK2,-9.3%
same,IC50,[3],> 3000 nM
same,inhibition at 0.1 µM,EPHA4,2.3%
same,inhibition at 0.1 µM,LCK,6.8%
"O[C@H]1CC[C@@H](Oc2cccc3cnc(Nc4ccc5nc[nH]c5c4)nc23)CC1 [NCB-0846, cis-4-(2-(3H-benzo[d]imidazol-5-ylamino)quinazolin-8-yloxy)cyclohexanol]",inhibition at 0.1 µM,IRAK4,14.7%
same,inhibition at 0.1 µM,AKT1,-3.4%
same,inhibition at 0.1 µM,EPHA2,13.6%
same,inhibition at 0.1 µM,SGK,14.7%
same,inhibition at 0.1 µM,IKKβ,6.8%
same,Sphere-containing wells/total wells,HCT116 cells [1]; [4],60/96
same,Sphere-containing wells/total wells,HCT116 cells [1]; [5],96/96
same,Sphere-containing wells/total wells,HCT116 cells [1]; [6],96/96
same,Sphere-containing wells/total wells,HCT116 cells [1]; [7],47/96
same,Sphere-containing wells/total wells,HCT116 cells [1]; [8],96/96
same,Sphere-containing wells/total wells,HCT116 cells [1]; [9],96/96
same,Sphere-containing wells/total wells,HCT116 cells [1]; [10],3/96
same,Sphere-containing wells/total wells,HCT116 cells [1]; [11],21/96
same,Sphere-containing wells/total wells,HCT116 cells [1]; [12],95/96
same,Sphere-containing wells/total wells,HCT116 cells [1]; [13],69/96
same,Sphere-containing wells/total wells,HCT116 cells [1]; [14],96/96
same,Sphere-containing wells/total wells,HCT116 cells [1]; [15],96/96
same,Sphere-containing wells/total wells,HCT116 cells [1]; [16],41/96
same,Sphere-containing wells/total wells,HCT116 cells [1]; [17],96/96
same,Sphere-containing wells/total wells,HCT116 cells [1]; [18],96/96
same,Sphere-containing wells/total wells,HCT116 cells [1]; [19],0/96
same,Sphere-containing wells/total wells,HCT116 cells [1]; [20],19/96
same,Sphere-containing wells/total wells,HCT116 cells [1]; [21],93/96
same,sphere formation activity,"HCT116 cells [1]; HCT116, short-term (3–4 days) treatment",significantly abrogated
same,inhibition at 0.1 µM,PKACα,0.9%
same,inhibition at 0.1 µM,CSK,-1%
same,inhibition at 0.1 µM,SRC,19%
same,inhibition at 0.1 µM,MST1,57.8%
same,inhibition at 0.1 µM,PKD2,18.8%
same,inhibition at 0.1 µM,PDK1,2.4%
same,inhibition at 0.1 µM,NEK2,-3.5%
same,inhibition at 0.1 µM,PAK2,-7.8%
same,>4N (%),HCT116 cells [2]; 24 h,6.1%
same,G0/G1 (%),HCT116 cells [2]; 24 h,20.6%
same,G2/M (%),HCT116 cells [2]; 24 h,30.6%
same,S (%),HCT116 cells [2]; 24 h,14.1%
same,SubG1 (%),HCT116 cells [2]; 24 h,28.6%
same,>4N (%),HCT116 cells [2]; 48 h,3.1%
same,G0/G1 (%),HCT116 cells [2]; 48 h,18.3%
same,G2/M (%),HCT116 cells [2]; 48 h,20.1%
same,S (%),HCT116 cells [2]; 48 h,11.1%
same,SubG1 (%),HCT116 cells [2]; 48 h,47.4%
same,inhibition at 0.1 µM,MAPKAPK2,-5.8%
same,IC50,[3],680 nM
same,inhibition at 0.1 µM,EPHA4,5.5%
same,inhibition at 0.1 µM,LCK,23.6%

# — article PMC5007443, “TNIK inhibition abrogates colorectal cancer stemness” (Nature Communications, 2016)
